Measurements published in US9028845B2, “Chimeric immunomodulatory compounds and methods of using the same-IV” (Dynavax Technologies Corporation, priority 2001, dated 2015).

Legend:
human PBMCs = assay: Human PBMC cytokine response assay (IFN-γ and IFN-α in cell-free medium by ELISA), with or without cPLGA; type: cell-based;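 as to IFN-α (pg/ml) mean: 20 µg/mL compound for 24 hours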;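 as to IFN-γ (pg/ml) mean: 20 µg/mL compound for 24 hours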
PBMCs = assay: Human PBMC proliferation assay (3H-thymidine incorporation); type: cell-based; conditions: Experiment A; for mean cpm: 2 μg/ml
CD19+ B cells = assay: Human B cell proliferation assay (3H-thymidine incorporation); conditions: 2 μg/ml; for cpm1 / cpm2 / cpm3 / mean cpm / mean of both: B cells
Protocol: Purified human B cells from 2 donors were stimulated with 5 μg/ml P-6 or CIC for 96 h. Proliferation was assessed by ^3H-thymidine incorporation.
A CIC is considered to induce “little” human B cell proliferation if B cell proliferation in the presence of the CIC is between greater than 15 to about 30% of P-6.
Human PBMCs were isolated from heparanized blood from two normal subjects. Some PBMCs were held in reserve while the remainder was incubated with CD19+ MACS beads (Miltenyi Biotec). These cells were then passed through a magnet, separating the CD19+ B cells through positive selection. […] B cells were then cultured at 1×10^5/200 μl/well in 96-well round-bottomed plates. In some cases, PBMCs were also cultured, but at 2×10^5/200 μl/well. Cells were stimulated in triplicate with 2 μg/ml polynucleotide or CIC. The culture period was 48 hours at 37° C. At the end of the culture period, the plates were pulsed with ^3H-thymidine, 1 μCi/well, and incubated for an additional 8 hours. Then the plates were harvested using standard liquid scintillation techniques and data was collected in counts per minutes (cpm).

[1] = Table 24, mean of donors 28234-28237
[2] = donor 28066, 20 ug/ml, 24 h, + PLGA = premixed with 100 μg/ml cPLGA
[3] = donor 28067, 20 ug/ml, 24 h, + PLGA = premixed with 100 μg/ml cPLGA
[4] = donor 28068, 20 ug/ml, 24 h, + PLGA = premixed with 100 μg/ml cPLGA
[5] = mean of donors 110, 112, 119, 120, Table 14
[6] = mean of donors 28065-28068, 20 ug/ml, 24 h, + PLGA = premixed with 100 μg/ml cPLGA
[7] = mean of donors 28185-28188, Table 15

Question: With “(5′-TCGTCGA-3′)2-glycerol-5′-TCGTCGA-3′ [Compound C-28]” as the substance, how does the IFN-α (human PBMCs; Table 9, donor 28089) read?
Answer: Its IFN-α is 0 pg/mL.

Question: And the IFN-γ (human PBMCs; Table 9, donor 28089)?
Answer: Its IFN-γ is 14 pg/mL.

Question: And the IFN-α (human PBMCs; Table 9, donor 28090)?
Answer: The IFN-α was 64 pg/mL.

Question: And the IFN-γ (human PBMCs; Table 9, donor 28090)?
Answer: The IFN-γ was 15 pg/mL.

Question: What about the IFN-α (human PBMCs; Table 9, donor 28098) of the same substance?
Answer: Its IFN-α is 42 pg/mL.

Question: What about the IFN-γ (human PBMCs; Table 9, donor 28098) of the same substance?
Answer: Its IFN-γ is 183 pg/mL.

Question: And the IFN-α (human PBMCs; Table 9, donor 28099)?
Answer: The IFN-α was 67 pg/mL.

Question: And the IFN-γ (human PBMCs; Table 9, donor 28099)?
Answer: The IFN-γ was 45 pg/mL.

Question: What about the IFN-α mean (human PBMCs; Table 9, mean of donors) of the same substance?
Answer: The IFN-α mean was 43 pg/mL.

Question: What about the IFN-γ mean (human PBMCs; Table 9, mean of donors) of the same substance?
Answer: Its IFN-γ mean is 64 pg/mL.

Question: What about the IFN-α (human PBMCs; Table 24, donor 28234) of the same substance?
Answer: The IFN-α was 16 pg/mL.

Question: What about the IFN-γ (human PBMCs; Table 24, donor 28234) of the same substance?
Answer: Its IFN-γ is 10 pg/mL.

Question: What about the IFN-α (human PBMCs; Table 24, donor 28235) of the same substance?
Answer: The IFN-α was 16 pg/mL.

Question: What about the IFN-γ (human PBMCs; Table 24, donor 28235) of the same substance?
Answer: Its IFN-γ is 14 pg/mL.

Question: And the IFN-α (human PBMCs; Table 24, donor 28236)?
Answer: The IFN-α was 16 pg/mL.

Question: What about the IFN-γ (human PBMCs; Table 24, donor 28236) of the same substance?
Answer: Its IFN-γ is 88 pg/mL.

Question: What about the IFN-α (human PBMCs; Table 24, donor 28237) of the same substance?
Answer: The IFN-α was 16 pg/mL.

Question: What about the IFN-γ (human PBMCs; Table 24, donor 28237) of the same substance?
Answer: Its IFN-γ is 1229 pg/mL.

Question: And the IFN-α mean (human PBMCs; [1])?
Answer: Its IFN-α mean is 16 pg/mL.

Question: What about the IFN-γ mean (human PBMCs; [1]) of the same substance?
Answer: Its IFN-γ mean is 335 pg/mL.

Question: What about the “IFN-α” value (human PBMCs; donor 110, Table 14) of the same substance?
Answer: Its value is 38 pg/mL.

Question: What about the “IFN-γ” value (human PBMCs; donor 110, Table 14) of the same substance?
Answer: The value was 5564 pg/mL.

Question: And the “IFN-α” value (human PBMCs; donor 112, Table 14)?
Answer: The value was 4 pg/mL.

Question: What about the “IFN-γ” value (human PBMCs; donor 112, Table 14) of the same substance?
Answer: Its value is 52 pg/mL.

Question: What about the “IFN-α” value (human PBMCs; donor 119, Table 14) of the same substance?
Answer: The value was 56 pg/mL.

Question: What about the “IFN-γ” value (human PBMCs; donor 119, Table 14) of the same substance?
Answer: The value was 44 pg/mL.

Question: And the “IFN-α” value (human PBMCs; donor 120, Table 14)?
Answer: The value was 26 pg/mL.

Question: And the “IFN-γ” value (human PBMCs; donor 120, Table 14)?
Answer: Its value is 60 pg/mL.

Question: And the “IFN-γ (pg/ml) 28065” value (human PBMCs; donor 28065 (high background), 20 ug/ml, 24 h, + PLGA = premixed with 100 μg/ml cPLGA, 1000 = outside assay limits)?
Answer: Its value is 1082 pg/mL.

Question: What about the “IFN-α (pg/ml) 28065” value (human PBMCs; donor 28065, 20 ug/ml, 24 h, + PLGA = premixed with 100 μg/ml cPLGA) of the same substance?
Answer: Its value is 3 pg/mL.

Question: And the “IFN-α (pg/ml) 28066” value (human PBMCs; [2])?
Answer: The value was 0 pg/mL.

Question: And the “IFN-γ (pg/ml) 28066” value (human PBMCs; [2])?
Answer: The value was 5 pg/mL.

Question: What about the “IFN-α (pg/ml) 28067” value (human PBMCs; [3]) of the same substance?
Answer: The value was 29 pg/mL.

Question: What about the “IFN-γ (pg/ml) 28067” value (human PBMCs; [3]) of the same substance?
Answer: Its value is 42 pg/mL.

Question: And the “IFN-α (pg/ml) 28068” value (human PBMCs; [4])?
Answer: Its value is 52 pg/mL.

Question: What about the “IFN-γ (pg/ml) 28068” value (human PBMCs; [4]) of the same substance?
Answer: Its value is 410 pg/mL.

Question: And the “IFN-a” value (human PBMCs; donor 28185, Table 15)?
Answer: Its value is 14 pg/mL.

Question: And the “IFN-g” value (human PBMCs; donor 28185, Table 15)?
Answer: The value was 162 pg/mL.

Question: What about the “IFN-a” value (human PBMCs; donor 28186, Table 15) of the same substance?
Answer: The value was 4 pg/mL.

Question: What about the “IFN-g” value (human PBMCs; donor 28186, Table 15) of the same substance?
Answer: The value was 24 pg/mL.

Question: And the “IFN-a” value (human PBMCs; donor 28187, Table 15)?
Answer: Its value is 0 pg/mL.

Question: What about the “IFN-g” value (human PBMCs; donor 28187, Table 15) of the same substance?
Answer: The value was 75 pg/mL.

Question: What about the “IFN-a” value (human PBMCs; donor 28188, Table 15) of the same substance?
Answer: The value was 4 pg/mL.

Question: What about the “IFN-g” value (human PBMCs; donor 28188, Table 15) of the same substance?
Answer: Its value is 5 pg/mL.

Question: What about the “IFN-α (pg/ml) mean” value (human PBMCs; [5]) of the same substance?
Answer: The value was 31 pg/mL.

Question: What about the “IFN-γ (pg/ml) mean” value (human PBMCs; [5]) of the same substance?
Answer: Its value is 1430 pg/mL.

Question: And the “IFN-α (pg/ml) mean” value (human PBMCs; [6])?
Answer: Its value is 21 pg/mL.

Question: What about the “IFN-γ (pg/ml) mean” value (human PBMCs; [6]) of the same substance?
Answer: The value was 385 pg/mL.

Question: What about the “IFN-a (pg/ml) mean” value (human PBMCs; [7]) of the same substance?
Answer: Its value is 6 pg/mL.

Question: What about the “IFN-g (pg/ml) mean” value (human PBMCs; [7]) of the same substance?
Answer: Its value is 66 pg/mL.

Question: What about the “IFN-a (pg/ml) ×2” value (human PBMCs; mean ×2, Table 15) of the same substance?
Answer: The value was 11 pg/mL.

Question: What about the “IFN-g (pg/ml) ×4” value (human PBMCs; mean ×4, Table 15) of the same substance?
Answer: The value was 266 pg/mL.

Question: And the “IFN-α induction, in words” value (human PBMCs; used alone)?
Answer: Its value is “HEG (C-94)>TEG (C-103)>C3 (C-104)=no linker (C-28)”.

Question: And the cpm1 (PBMCs; Donor 146, 2 μg/ml)?
Answer: Its cpm1 is 94977 cpm.

Question: What about the cpm2 (PBMCs; Donor 146, 2 μg/ml) of the same substance?
Answer: The cpm2 was 121595 cpm.

Question: What about the cpm3 (PBMCs; Donor 146, 2 μg/ml) of the same substance?
Answer: Its cpm3 is 84977 cpm.

Question: And the mean cpm (PBMCs; Donor 146 mean)?
Answer: Its mean cpm is 100516 cpm.

Question: What about the cpm1 (PBMCs; Donor 147, 2 μg/ml) of the same substance?
Answer: The cpm1 was 103916 cpm.

Question: What about the cpm2 (PBMCs; Donor 147, 2 μg/ml) of the same substance?
Answer: Its cpm2 is 91439 cpm.

Question: And the cpm3 (PBMCs; Donor 147, 2 μg/ml)?
Answer: The cpm3 was 100905 cpm.

Question: What about the mean cpm (PBMCs; Donor 147 mean) of the same substance?
Answer: Its mean cpm is 98753 cpm.

Question: What about the mean of both (PBMCs; mean of Donors 146 and 147, 2 μg/ml) of the same substance?
Answer: Its mean of both is 99635 cpm.

Question: And the “B cell proliferation, in words” value (CD19+ B cells; 48 h plus 8 h 3H-thymidine pulse)?
Answer: The value was “cause B cells to proliferate”.

Question: What about the cpm1 (CD19+ B cells; Donor 146, Experiment A) of the same substance?
Answer: Its cpm1 is 50999 cpm.

Question: What about the cpm2 (CD19+ B cells; Donor 146, Experiment A) of the same substance?
Answer: The cpm2 was 54630 cpm.

Question: What about the cpm3 (CD19+ B cells; Donor 146, Experiment A) of the same substance?
Answer: The cpm3 was 46418 cpm.

Question: And the mean cpm (CD19+ B cells; Donor 146 mean, Experiment A)?
Answer: Its mean cpm is 50682 cpm.

Question: And the cpm1 (CD19+ B cells; Donor 147, Experiment A)?
Answer: Its cpm1 is 65593 cpm.

Question: And the cpm2 (CD19+ B cells; Donor 147, Experiment A)?
Answer: Its cpm2 is 51040 cpm.

Question: And the cpm3 (CD19+ B cells; Donor 147, Experiment A)?
Answer: Its cpm3 is 50357 cpm.

Question: What about the mean cpm (CD19+ B cells; Donor 147 mean, Experiment A) of the same substance?
Answer: Its mean cpm is 55663 cpm.

Question: And the cpm1 (CD19+ B cells; donor 121, Experiment B)?
Answer: The cpm1 was 35393 cpm.

Question: And the cpm2 (CD19+ B cells; donor 121, Experiment B)?
Answer: The cpm2 was 26954 cpm.

Question: And the cpm3 (CD19+ B cells; donor 121, Experiment B)?
Answer: Its cpm3 is 26780 cpm.

Question: And the mean cpm (CD19+ B cells; donor 121 mean, Experiment B)?
Answer: Its mean cpm is 29709 cpm.

Question: What about the cpm1 (CD19+ B cells; donor 194, Experiment B) of the same substance?
Answer: Its cpm1 is 21588 cpm.

Question: What about the cpm2 (CD19+ B cells; donor 194, Experiment B) of the same substance?
Answer: Its cpm2 is 13691 cpm.

Question: What about the cpm3 (CD19+ B cells; donor 194, Experiment B) of the same substance?
Answer: Its cpm3 is 15691 cpm.

Question: And the mean cpm (CD19+ B cells; donor 194 mean, Experiment B)?
Answer: Its mean cpm is 16990 cpm.

Question: And the mean of both (CD19+ B cells; mean of Donors 146 and 147, Experiment A)?
Answer: The mean of both was 53173 cpm.

Question: What about the mean of both (CD19+ B cells; mean of donors 121 and 194, Experiment B) of the same substance?
Answer: Its mean of both is 23350 cpm.
